The results in this text go back to patent US10494341B2, “Compound containing indoleacetic acid core structure and use thereof” (Beijing An Jian Xi Bio-Medical Technology Co., Ltd., priority 2015, dated 2019).

The structures appear in SMILES notation.

Assay type in all cases: in vivo
One assay deals with T1, COX-1 in gastric mucosa (Rattus norvegicus, UniProt Q63921).
T1 construct: from tissue; host or cells: rat gastric mucosa (in vivo dosing, tissue homogenate supernatant)
T1 sequence (Q63921 27-602): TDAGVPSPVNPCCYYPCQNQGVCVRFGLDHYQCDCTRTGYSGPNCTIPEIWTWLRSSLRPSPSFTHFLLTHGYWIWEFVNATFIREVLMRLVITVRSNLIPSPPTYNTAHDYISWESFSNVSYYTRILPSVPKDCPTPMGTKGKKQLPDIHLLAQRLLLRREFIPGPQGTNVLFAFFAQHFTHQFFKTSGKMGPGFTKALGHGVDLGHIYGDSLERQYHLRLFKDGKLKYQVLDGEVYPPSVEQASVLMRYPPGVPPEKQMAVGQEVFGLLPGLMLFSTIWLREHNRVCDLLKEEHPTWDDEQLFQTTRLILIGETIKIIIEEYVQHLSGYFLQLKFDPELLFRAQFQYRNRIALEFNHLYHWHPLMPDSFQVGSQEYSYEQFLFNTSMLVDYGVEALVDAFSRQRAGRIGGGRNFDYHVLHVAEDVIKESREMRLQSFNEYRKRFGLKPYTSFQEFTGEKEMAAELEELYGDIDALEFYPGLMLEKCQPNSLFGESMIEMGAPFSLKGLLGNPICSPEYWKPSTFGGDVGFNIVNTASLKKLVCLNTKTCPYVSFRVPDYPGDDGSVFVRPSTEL
Nature of the assay: COX-1 activity assay, gastric mucosa (thromboxane B2 EIA) after oral dosing of A23187-treated rats. Particulars: for reduction of inhibition against COX-1 in gastric mucosal tissue compared with intermediate I: gavage 1, 3, 9 mg/kg/day, intermediate I 0.5 mg/kg, 6 h after dosing; for effect of inhibiting COX-1 in gastric mucosa: gavage, A23187-activated. How it is done:
(1) COX-1 activity assay: 2 hours after intraperitoneal injection of calcium ionophore A23187 (50 mg/kg) to rats, each of the compounds a, b, c, d, e and f was orally administered (gavage) to three rats at a dose of 1, 3 and 9 mg/kg/day, respectively; the intermediate I was orally administered as a control drug to three rats at a dose of 0.5 mg/kg; and additional three rats were only administered with COX-1 activator, the calcium ionophore A23187, and were not administered with the compounds of the present invention. 6 hours after the compound of the present invention was administered, the animals were sacrificed, gastric mucosal tissue and myocardial tissue were collected, homogenized, and subjected to high-speed centrifugation (12,000 rpm), and the supernatant was collected for use. The amount of thromboxane B2 was measured using an enzyme-linked immunosorbent assay (EIA) kit (operated in accordance with the instructions provided by the manufacturer) and converted to COX1 activity.
The percentage inhibition rate against COX-1 (FIG. 1a—gastric mucosa, FIG. 1b—myocardium) and COX-2 (FIG. 1c) and the IC50 values (Table 1a—gastric mucosa; Table 1b—myocardium) of each tested pharmaceutical compound were calculated from the above data.

For another assay, the system named is peripheral leukocytes. Nature of the assay: Protection against blood cell (leukocyte) damage induced by paclitaxel. Particulars: mice, compounds 6 mg/kg/day gavage; for protective effect on peripheral leukocytes (words): paclitaxel 10 mg/kg/day i.p.; for protective effect on leukocytes at the late stage of chemotherapy: paclitaxel. How it is done:
In this experiment, 10-week-old male mice (C57BL/6J) weighing about 20 grams were used as subjects, and 6 mice were taken as a group. The mice were divided into 5 groups: 1. Paclitaxel; 2. Paclitaxel+amifostine; 3. Paclitaxel+intermediate I+intermediate II; 4. paclitaxel+compound a; and 5. paclitaxel+compound b. Firstly, each group of mice was administered with a protective agent, and the specific amounts were as follows: compounds a and b: each 6 mg/kg/day (8.1 μM), amifostine: 400 mg/kg/day (1.5 mM), intermediate I+Intermediate II: each 3 mg/kg/day (8.1 μM). Except that amifostine was intraperitoneally injected (30 minutes before administering Paclitaxel, amifostine was administered), the other protective agents were administered by gavage (once a day, 25 times continuously). 12 hours after the compound a and the corresponding protective agents were administered, Paclitaxel was intraperitoneally injected (10 mg/kg/day, once every 3 days, 9 times continuously), and 7, 14, 21, 28 days later, blood of mice was drawn respectively. The number of leukocytes was analyzed.

For the next assay, the system named is mice (C57BL/6J). Briefly: Survival rate of mice irradiated by γ-rays. The following applies: 30th day after 8.75 Gy γ-rays, 16 mice per group; for number of survived mice: intermediates each 3 mg/kg/day gavage; for survival rate: compounds 6 mg/kg/day gavage, amifostine 400 mg/kg/day i.p. The procedure: In this experiment, 10-week-old male mice (C57BL/6J) weighing about 20 g were used as subjects, and 16 mice were taken as a group. The mice were divided into the following groups: 1. no γ-ray+no drug; 2. γ-ray+no drug; 3. γ-ray+amifostine; 4. γ-ray+intermediate I+intermediate II; 5. γ-ray+compound a; 6. γ-ray+compound b; and 7. γ-ray+compound d. Firstly, each group of mice was administered with a protective agent, and the specific amounts were as follows: compound a, b and d: 6 mg/kg/day (8.1 μM), amifostine: 400 mg/kg/day (1.5 mM), intermediate I+Intermediate II: each 3 mg/kg/day (8.1 μM). Except that amifostine was intraperitoneally injected (30 minutes before irradiation, amifostine was administered), the other protective agents were administered by gavage. 12 hours after administration, systemic irradiation was performed using cobalt 60γ-rays at a dose of 8.75Gy and a dose rate of 0.35 Gy/min for 25 minutes, with the radiation source 80 cm away from the mice. The mice were irradiated once, and continuously administered with drugs once daily for 10 days after irradiation. The number of survival mice was recorded. The percentage obtained by dividing the number of survival mice by the total number of mice in the experimental group (16 mice) is survival rate of mice, and the results are summarized in FIG. 7. […] It is noteworthy that in the experimental group using intermediate I+intermediate II, only one mouse is survived.

As to `COc1ccc2c(CC(=O)OCCCCCCCCCCc3c(C)c(O)c(OC)c(OC)c3O)c(C)n(C(=O)c3ccc(Cl)cc3)c2c1` [compound b], on COX-1 in gastric mucosa, the “reduction of inhibition against COX-1 in gastric mucosal tissue compared with intermediate I” value was about 700 fold and the “effect of inhibiting COX-1 in gastric mucosa” value is recorded as “almost lose the effect of inhibiting COX-1 in gastric mucosa”. For the same molecule, in the assay on peripheral leukocytes, the “protective effect on peripheral leukocytes (words)” value (“protective effect … (words)” below) is “apparently reduce radiation-induced peripheral leukocyte damage” and the “protective effect on leukocytes at the late stage of chemotherapy” value is on record as “significantly better than that of amifostine”. For the same molecule, the “protective effect … (words)” value in the assay on peripheral leukocytes (listed as Compound b) is reported as “strongest protective effect”. Besides, in the assay on mice (C57BL/6J), the “number of survived mice” value is given as 12 mice and the survival rate was 75%.
Consider `COC1=C(OC)C(=O)C(CCCCCCCCCCOC(=O)Cc2c(C)n(C(=O)c3ccc(Cl)cc3)c3cc(OC)ccc23)=C(C)C1=O` [compound a], for which, at COX-1 in gastric mucosa, the “reduction of inhibition against COX-1 in gastric mucosal tissue compared with intermediate I” value is recorded as about 700 fold and the “effect of inhibiting COX-1 in gastric mucosa” value is on record as “almost lose the effect of inhibiting COX-1 in gastric mucosa”. Further, in the assay with peripheral leukocytes, the “protective effect … (words)” value is listed as “apparently reduce radiation-induced peripheral leukocyte damage” and the “protective effect on leukocytes at the late stage of chemotherapy” value is listed as “significantly better than that of amifostine”. Besides, in the assay with mice (C57BL/6J), the “number of survived mice” value was 10 mice and the survival rate was 62.5%.
